Patent US20120121691A1, “Method for Increasing the Production of a Specific ACYL-Chain Dihydroceramide(s) for Improving the Effectiveness of Cancer Treatments” (priority 2010, published 2012)

What was measured:
Assay type in all cases: cell-based, human
[1] = system: intracellular sphingolipids, CCRF-CEM cells; test: LC/MS/MS analysis of intracellular sphingolipids, CCRF-CEM; conditions: for increase in corresponding dihydroceramide over sphinganine plus GT-11 alone: fatty acid in addition to sphinganine plus GT-11, six hours, P<0.05
Description: (§1) LC/MS/MS analysis of intracellular sphingolipids. Sphingolipids were separated using an Agilent 1200 HPLC (LC) and determined by ESI/MS/MS performed on a AB SCIEX 4000 QTRAP Hybrid Triple Quadrupole/Linear Ion Trap mass spectrometer (MS), operating in a multiple reaction monitoring positive ionization mode as described previously with moderate modifications (25). Briefly, 50 μL of a solution (1 μM) of internal sphingolipid standards (including -sphingosine, -sphinganine, -sphingosine-1-phosphate, and -ceramide) was added to each cell pellet sample. Lipids of each sample were extracted twice with 2 mL of the ethyl acetate/isopropyl alcohol/water (60:28:12; v:v) solvent system. Supernatants were transferred to glass tubes (Kimble Chase) and evaporated under air (10 PSI) at 40° C. After reconstitution in methanol (4 mL), 1 ml of each sample was separated for the determination of lipid phosphate. Remaining sample (3 mL) was dried and used for sphingolipid quantification. For ESI/MS/MS, the dried lipid sample was dissolved in mobile phase A. Samples were injected (10 μL) and separated on a Spectra C8SR, 150×3.0 mm, 3-μm particle size column using gradient-elution (mobile phase A/B, prepared as previously described).
(§2) Data acquisition, peak integration and analyte quantitation were performed using ABI/SCIEX Analyst 1.4.2 Software. Sphingolipid data were normalized to lipid phosphate as previously described (26). Briefly, samples were dried under air (10 PSI) and lipids were extracted using the method of Bligh and Dyer (27). Of importance for phosphate assay, only Kimble Chase disposable borosilicate tubes were used for minimal sample contamination. Organic phase was transferred to glass tubes and a known volume was separated to a new tube and dried at 80° C. Phosphate standards and dried samples were then heated with ashing buffer (water:10 N:70% [40:9:1]) at 160° C. overnight. Samples were then incubated with ammonium molybdate and ascorbic acid as previously described, and absorbance ([…]) was read using a SpectraMax.
CCRF-CEM cells were treated with drug/fatty acid vehicles (control), GT-11 (0.5 μM) alone, sphinganine (4 μM) alone or sphinganine (4 μM) plus GT-11 (0.5 μM) for six hours and subsequently prepared for sphingolipid analysis.
CCRF-CEM cells were treated with GT-11 (0.5 μM) alone, sphinganine (1 μM) alone or sphinganine (1 μM) plus GT-11 (0.5 μM) for six hours and prepared for quantitative analysis. DHCers were normalized to control and plotted as fold change (bar, z-axis). * indicates significance, with P<0.05. […] CCRF-CEM cells were treated with sphinganine (1 μM) plus GT-11 (0.5 μM) with and without specific solubilized fatty acids (carbon chain length (CX) and saturation (:X), Ex: C20:1=fatty acid with 20 carbons and one desaturation) for six hours and prepared for quantitative sphingolipid analysis. Dihydroceramides were normalized to control cells that received sphinganine plus GT-11 with no fatty acid and plotted as fold change (bar, z-axis). * indicates significance, with P<0.05.

[2] = system: intracellular sphingolipids, MOLT-4; test: LC/MS/MS analysis of intracellular sphingolipids, MOLT-4; conditions: for increase in corresponding dihydroceramide over sphinganine+GT-11 alone: MOLT-4, fatty acid with sphinganine+GT-11, six hours, P<0.05
Description: as §1
as §2, with “Organic phase was transferred to glass tubes and a known volume was separated to a new tube and dried at 80° C. Phosphate standards and dried samples were then heated with ashing buffer (water:10 N:70% [40:9:1]) at 160° C. overnight.” left out
Cells were treated for 48 hours with Sa (0-4 μM)+/−GT-11 (0.5 μM) with or without C18:0-, C22:0- or C22:1-fatty acids. Cytotoxicity was measured using DIMSCAN, and data was normalized to control and plotted as survival fraction (y-axis). […]

[3] = system: intracellular sphingolipids, COG-LL-332; test: LC/MS/MS analysis of intracellular sphingolipids, COG-LL-332; conditions: for increase in corresponding dihydroceramide over sphinganine+GT-11 alone: COG-LL-332, fatty acid with sphinganine+GT-11, six hours, P<0.05
Description: as §1, §2
Cells were treated for 48 hours with Sa (0-4 μM)+/−GT-11 (0.5 μM) with or without C18:0-, C22:0- or C22:1-fatty acids. Cytotoxicity was measured using DIMSCAN, and data was normalized to control and plotted as survival fraction (y-axis). Gray and white symbols represent long and very long chain fatty acids, respectively. Gray lines encompass data used for sphingolipid correlation analysis with cytotoxicity. Datum point, mean; error bar, SEM. […]
Cytotoxicity was measured using DIMSCAN, and data was normalized to control and plotted as survival fraction (y-axis).

[4] = fatty acid 5 μM in addition to sphinganine 1 μM plus GT-11 0.5 μM, six hours, P<0.001
[5] = fatty acid in addition to sphinganine, no GT-11, P<0.001

Row | Compound | increase in C22:0-DHCer over sphinganine plus GT-11 alone [1, 4] | increase in C24:0-DHCer over sphinganine plus GT-11 alone [1, 4] | increase in corresponding dihydroceramide over sphinganine plus GT-11 alone [1] | increase in C22:0-Cer over sphinganine alone [1, 5] | increase in C24:0-Cer over sphinganine alone [1, 5] | increase of C22:0-dihydroceramide over sphinganine+GT-11 alone ([2]; MOLT-4, fatty acid with sphinganine 1 μM plus GT-11 0.5 μM, six hours, P<0.01) | increase in corresponding dihydroceramide over sphinganine+GT-11 alone [2] | increase of C22:0-dihydroceramide compared to 4-HPR alone ([3]; COG-LL-332, fatty acid with 4-HPR 1.1 μM, six hours, P<0.001) | increase of C22:0-dihydroceramide over sphinganine+GT-11 alone ([3]; COG-LL-332, fatty acid with sphinganine 1 μM plus GT-11 0.5 μM, six hours, P<0.001) | increase in corresponding dihydroceramide over sphinganine+GT-11 alone [3]
1 | CCCCCCCCCCCCCCCCCCCCCC(=O)O [C22:0-fatty acid] | 32 fold | 19 fold | significant increases | 13 fold | 4.6 fold | 29 fold | significant increases | 8 fold | 57 fold | significant increases
2 | CCCCCCCC/C=C\CCCCCCCCCCCC(=O)O [C22:1-fatty acid] | – | – | significant increases | – | – | – | significant increases | – | – | significant increases
